Measured values as given in US20180228871A1, “METHODS FOR THE MOBILIZATION AND USE OF T-CELLS WITH ENHANCED RECONSTITUTION POTENTIAL AND LIFE-SPAN” (GlycoMimetics, Inc., priority 2015, published 2018).

B1: G-CSF: granulocyte-colony stimulating factor, a glycoprotein; Example I used Filgastim (Amgen) (protein, UniProt P09919 31-207, looked up)
Granulocyte …: TPLGPASSLPQSFLLKCLEQVRKIQGDGAALQEKLVSECATYKLCHPEELVLLGHSLGIPWAPLSSCPSQALQLAGCLSQLHSGLFLYQGLLQALEGISPELGPTLDTLQLDVADFATTIWQQMEELGMAPALQPTQGAMPAFASAFQRRAGGVLVASHLQSFLEVSYRVLRHLAQP
modifications: filgrastim
B2: Filgrastim: recombinant G-CSF expressed by E. coli, 175 amino acids, 19 kD, amino terminus methionine (protein, UniProt P09919 31-207, looked up)
Granulocyte …: B1 Granulocyte …
modifications: filgrastim, N-terminal Met
B3: Pegfilgrastim: Filgrastim with pegylation (20 kD-PEG) modification on the N terminal (protein, UniProt P09919 31-207, looked up)
Granulocyte …: B1 Granulocyte …
modifications: N-terminal 20 kDa PEG; pegfilgrastim

Key:
[1] = Mobilization of CCR7 cells by G-CSF and GMI-1271: PBMC counts and marker-positive cells by flow cytometry; assay type: in vivo, Mouse; conditions: IP qdX3, blood PBMC
Description: (§1) 1) Test Animals: • 1. Species: Mouse • 2. Strain: Balb/C and C57BV6 • 3. Age and gender 7-9 weeks, Female • 4. Source: Harlan Laboratories • 5. Total number: 25
(§2) G-CSF and GM-1271 in powder form. The test agents were reconstituted with saline 600 μg of G-CSF was dissolved in 6.5 mL of sterile saline giving a concentration of 92.307 μg/mL. Animals were administered with 0.1 mL of dose solution per time point giving the dose concentration for G-CSF was 9.23 μg per mouse per time point.
(§3) 70 mg of GM-1271 was reconstituted with 7 mL of sterile saline giving a concentration of 10 mg/mL. Animals were administered with 0.1 mL of dose solution per time point giving the dose concentration for GM-1271 was 1 mg per mouse per time point.
(§4) • To purify PBMCs, red blood cells (RBCs) in the whole blood were lysed using ACK Lysing Buffer (Life Technologies, A1049201). Whole blood was mixed with ACK Lysing Buffer at a 1: 25 ratio and incubated at room temperature on shaker for 5 min. The cells were centrifuged at 350 g for 7 min and the supernatant was discarded. The purified PBMCs were suspended in PBS containing 2% FBS. Cell counts were performed, pelleted at 250×g for 10 minutes and suspended in 5 ml HBSS containing containing Ca2+ and Mg2+(Life Technologies catalog #14025-092) plus 0.05% bovine serum albumin (BSA) to […] for antibody staining.
(§5) • Add 100 ul cells (2-3×10^5 cells) per tube (5 mL polypropylene round-bottom tubes (BD Falcon tubes #352063, VWR catalog #60819-728). Add indicated amounts of Alexa Fluor 488® labeled antibodies as indicated in Table 3 and immediately place on ice. • Place tubes at 4° C. for 1 hour then add 2 mL cold HBSS/BSA to each tube and pellet cells 250×g for 10 minutes. Pour off supernatant and suspend the cell pellet in 1 mL cold HBSS/BSA. Pellet cells 250×g for 10 minutes, pour off supernatant, and suspend cell pellet in 250 microliters HBSS/BSA. Add 250 microliters 2% formaldehyde (Polysciences, Inc. catalog #04018, 10% ultrapure, EM grade, methanol-free). Proceed to flow cytometry.
(§6) • Fluorescence was acquired via blue laser excitation at 488 nm with emission at 530 nm using preset lasers equipped on the Attune@ NxT Accoustic Focusing Cytometer (Life Technologies). 2×104 events were collected for each sample and analyzed with the use of the Attune® NxT Cytometric Software v2.1. Results were recorded as median fluorescent intensity, % cells positive for a given marker, and as cell concentration of expressing the specific marker per mL.
(§7) These experiments were done in both Balb/c (top table) and BL6 (bottom table) mouse strains.

CCR7+ cells = assay: as above; assay type: in vivo, Mouse; conditions: for CCR7 Cells/mL(10^5): IP qdX3, blood PBMC
Description: as §1, §2, §3, §4, §5, §6, §7

HSCs = conditions: E-selectin inhibition during HSC mobilization with G-CSF; cited from earlier work
CD8+CD62Lhi CD44+ cells = assay: G-CSF mobilization of blood leukocytes and T-cell subsets with GMI-1271 co-administration (flow cytometry of blood); assay type: in vivo, mice (C57bl/6); conditions: C57bl/6 mice; for CD44+CD62hi CD4+ T-cells per uL blood: G-CSF administration, with or without GMI-1271 co-administration, FIG. 4B
Description: The following classification was used in the following experiments. Of all the CD8+ cells the Tnaive, population is CD62hi […]; the TCM/SCM population is CD62hi CD44+; and the TEM population is CD44+CD62^− population. An increase in the TCM/SCM mouse cell population is observed below (see FIGS. 1 through 6).
Cohorts of mice (C57bl/6 adult 10 week old males) were administered G-CSF (Filgastim, Amgen) at 125ug/kg/injection bidaily subcutaneous injections for a total of 72 hours before sacrifice (with non-mobilised control group #1 receiving saline injection instead).
The E-selectin mimetic antagonist GMI-1271 (bidaily intraperitoneal injections at 40 mg/kg/injection), was co-administered to these mice at specified timepoints prior to sacrifice with a final GMI-1271 injection always occurring exactly 1 hour prior to sacrifice. Generally all mice received injections at 9 am and 6 pm every day with n=4 per group. The injection groups are outlined in FIG. 1 and are detailed below.
The mouse groups were: Group 1. non-mobilised control, Group 2. G-CSF alone control, Group 3. 14 hours GMI-1271, Group 4. 24 hours GMI-1271, Group 5. 48 hours GMI-1271, Group 6. 72 hours GMI-1271
After 3 days (72 hours) G-CSF administration mice were euthanised administration and heparinised blood collected by cardiac puncture. Total blood leukocytes counts were enumerated using an automated haematological cell counter (Beckman-Coulter KX-21), For flow cytometry, red cells were first lysed using ammonium lysis then blood leukocytes washed in phosphate buffered saline (PBS) containing 2% fetal calf serum and incubated on ice in the presence of excess FcBlock (CD16/CD32 hybridoma 2.4G2 supernatant to block endogenous Fc receptors) following the methodology in Winkler et al., Nature Medicine 2012. Cells were stained using the antibodies CD4-pacific blue, CD8-peCY7, CD62L-BV605, CD44-AF700 at a final concentration of approx 5 million leukocytes per 100 uL volume containing 0.5 ug of each of the above conjugated monoclonal antibodies. All conjugated antibodies were purchased from Biolegend, CA. After 40 minutes incubation on ice, cells were washed to remove excess antibody (by addition of 1 mL PBS, centrifugation at 370×g for 5 minutes at 4 C, removal of supernatant and resuspension of pellet in 100 uL PBS with 2% fetal calf serum). Flow cytometry of cells was performed on the 8 colour CYAN (Beckman Coulter) using unstained blood and single colour controls to set voltages and gating strategy.
CD8+ Tcell subsets were divided based on CD62 and CD44 staining. With CD8+ naive T cells being CD62hi CD44−, CD8+T CM/SCM cells being CD62hi CD44+ double positive and TEM being CD44+ and CD62 negative following routine methodology.
Data was later analysed using the Flow Jo software and collated in excel software. Figures and statistics were by ANOVA using prism software.

HSC = conditions: transient administration; cited from earlier work
[2] = in vivo; cited from earlier work

| Molecule | CD4 Cells/mL(10^5) ([1]; BL6 mice (bottom table)) | CD8 Cells/mL(10^5) ([1]; BL6 mice (bottom table)) | CD44 Cells/mL(10^5) ([1]; BL6 mice (bottom table)) | CD62L Cells/mL(10^5) ([1]; BL6 mice (bottom table)) | Total cells/mL (10^6 + SD) ([1]; BL6 mice (bottom table)) | CD4 Cells/mL(10^5) ([1]; Balb/c mice (top table)) | CD8 Cells/mL(10^5) ([1]; Balb/c mice (top table)) | CD44 Cells/mL(10^5) ([1]; Balb/c mice (top table)) | CD62L Cells/mL(10^5) ([1]; Balb/c mice (top table)) | Total cells/mL (10^6 + SD) ([1]; Balb/c mice (top table)) | CCR7 Cells/mL(10^5) (CCR7+ cells; BL6 mice (bottom table)) | CCR7 Cells/mL(10^5) (CCR7+ cells; Balb/c mice (top table)) | CD44+CD62hi CD4+ T-cells per uL blood (CD8+CD62Lhi CD44+ cells) | half-life [2] [h] | also measured |
| --- | --- | --- | --- | --- | --- | --- | --- | --- | --- | --- | --- | --- | --- | --- | --- |
| CC[C@H]1C[C@@H](C(=O)NCCNC(=O)CCOCCOCCOCCOCCOCCOCCOCCOCCOCCOCCOCCOC)C[C@@H](O[C@@H]2O[C@H](CO)[C@H](O)[C@H](O[C@@H](CC3CCCCC3)C(=O)[O-])[C@H]2NC(C)=O)[C@@H]1O[C@@H]1O[C@@H](C)[C@@H](O)[C@@H](O)[C@@H]1O.[Na+] [GMI-1271] | 0.43 10^5 cells/mL | 1.74 10^5 cells/mL | 3.56 10^5 cells/mL | 0.19 10^5 cells/mL | 1.89 ± 0.40 10^6 cells/mL | 1.56 10^5 cells/mL | 0.49 10^5 cells/mL | 4.76 10^5 cells/mL | 0.74 10^5 cells/mL | 1.01 ± 0.46 10^6 cells/mL | 0.23 10^5 cells/mL | 1.68 10^5 cells/mL | does not appear to boost their numbers in blood |  | mobilization of CCR7+ cells (CCR7+ cells; addition of GMI-1271 to G-CSF, both Balb/c and BL6 strains): increases the mobilization of CCR7+ cells; reconstitution potential of mobilized HSCs (HSCs): ~25 fold; Total leukocytes per uL blood, increase over G-CSF 3 days alone (CD8+CD62Lhi CD44+ cells; 24 hr administration of GMI-1271 with 72 h G-CSF, FIG. 2): ~1.5 fold; CD44+CD62hi CD8+ Tcells per uL blood (CD8+CD62Lhi CD44+ cells; 24 hrs GMI-1271 co-administration with G-CSF, FIG. 5B): significantly increased; CD4+ Tcells per uL blood (CD8+CD62Lhi CD44+ cells; G-CSF with GMI-1271 co-administration, FIG. 4A): no change; CD8+ Tcells per uL blood (CD8+CD62Lhi CD44+ cells; G-CSF with GMI-1271 co-administration, FIG. 5A): no changes; Total T-cells per uL blood (CD4+ and CD8+ combined) (CD8+CD62Lhi CD44+ cells; GMI-1271 co-administration with G-CSF, FIG. 3): No change |
| C[C@@H]1O[C@@H](O[C@@H]2[C@@H](NC(=O)c3cc(=O)[nH]c(=O)[nH]3)C[C@@H](C(=O)NCCNC(=O)COCCOCC(=O)Nc3cc(S(=O)(=O)O)cc4cc(S(=O)(=O)O)cc(S(=O)(=O)O)c34)C[C@H]2O[C@@H]2O[C@H](CO)[C@H](O)[C@H](O[C@@H](CC3CCCCC3)C(=O)O)[C@H]2OC(=O)c2ccccc2)[C@@H](O)[C@H](O)[C@@H]1O [GMI-1070] |  |  |  |  |  |  |  |  |  |  |  |  |  |  | HSC self-renewal (HSC): promotes HSC self-renewal |
| B1 | 1.10 10^5 cells/mL | 10.00 10^5 cells/mL | 12.65 10^5 cells/mL | 0.09 10^5 cells/mL | 5.98 ± 2.25 10^6 cells/mL | 3.43 10^5 cells/mL | 1.32 10^5 cells/mL | 14.88 10^5 cells/mL | 1.59 10^5 cells/mL | 2.67 ± 0.64 10^6 cells/mL | 0.60 10^5 cells/mL | 4.00 10^5 cells/mL | appear to be decreased |  |  |
| B2 |  |  |  |  |  |  |  |  |  |  |  |  |  | 3.5 |  |
| B3 |  |  |  |  |  |  |  |  |  |  |  |  |  | 15 to 80 |  |
